We go through five molecules from patent publication US8765805B2, “Ligand activators of the RAR receptors and pharmaceutical/cosmetic applications thereof” (Galderma Research & Development, priority 2003, dated 2014).

Holding throughout (type): cell-based
What all share (settings): HeLa stable transfectants; for Kd: Schild regression vs reference antagonist, read-out: Kdapp; for AC50: concentration that gives 50% of the activity

For one assay, the target named is T1, RAR beta (Homo sapiens, UniProt P10826).
T1 sequence (P10826 183-417 limits assumed): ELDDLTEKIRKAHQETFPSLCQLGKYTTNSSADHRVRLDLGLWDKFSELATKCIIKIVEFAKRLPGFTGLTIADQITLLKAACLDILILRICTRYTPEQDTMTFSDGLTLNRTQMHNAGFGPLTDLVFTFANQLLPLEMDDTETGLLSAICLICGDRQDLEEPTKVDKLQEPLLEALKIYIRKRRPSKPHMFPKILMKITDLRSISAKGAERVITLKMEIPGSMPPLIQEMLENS
In words: Transactivation test, HeLa reporter cells (luciferase), RAR beta. The procedure: (§1) The activation of receptors with an agonist (activator) in HeLa cells leads to the expression of a reporter gene, luciferase, which, in the presence of a substrate, generates light. The activation of the receptors may thus be measured by quantifying the luminescence produced after incubating the cells in the presence of a reference antagonist. The activating products displace the antagonist from its site, thus allowing activation of the receptor. The activity is measured by quantifying the increase in light produced. This measurement makes it possible to determine the activating activity of the compounds according to the invention.
(§2) Determination of the Kdapp:
(§3) In this study, a constant is determined which is the affinity of the molecule for the receptor. Since this value can fluctuate depending on the basal activity and the expression of the receptor, it is referred to as the Kdapparent (KdApp).
(§4) To determine this constant, the cells are brought into contact with a concentration of the test product and a concentration of the reference antagonist, 4-(5,5-dimethyl-8-p-tolyl-5,6-dihydronaphth-2-ylethynyl)benzoic acid. Measurements are also taken for the total agonist (4-[2-(5,5,8,8-tetramethyl-5,6,7,8-tetrahydronaphth-2-yl)propenyl]benzoic acid) and inverse agonist, 4-{(E)-3-[4-(4-tert-butylphenyl)-5,5,8,8-tetramethyl-5,6,7,8-tetrahydro-2-naphthyl]-3-oxopropenyl}benzoic acid, controls.
(§5) These crossed curves make it possible to determine the AC50 values (concentration at which 50% activation is observed) for the reference ligand at various concentrations of test product. These AC50 values are used to calculate the Schild regression by plotting a straight line corresponding to the Schild equation (“quantitation in receptor pharmacology” Terry P. Kenakin, Receptors and Channels, 2001, 7, 371-385).
(§6) In the case of an agonist, an AC50 value (concentration that gives 50% of the activity) is calculated by plotting the curve of the product at the concentration of the reference ligand that gives 80% activation.
(§7) The HeLa cell lines used are stable transfectants containing the plasmids ERE-βGlob-Luc-SV-Neo (reporter gene) and RAR (α, β, γ) ER-DBD-puro. These cells are inoculated into 96-well plates at a rate of 10,000 cells per well in 100 μl of DMEM medium without phenol red, and supplemented with 10% defatted calf serum. The plates are then incubated at 37° C. and 7% CO2 for 4 hours.
(§8) The various dilutions of the test products, of the reference ligand (4-(5,5-dimethyl-8-p-tolyl-5,6-dihydronaphth-2-yl)ethynyl)benzoic acid, of the 100% control (100 nM 4-[2-(5,5,8,8-tetramethyl-5,6,7,8-tetrahydro-2-naphthyl)propenyl]benzoic acid) and of the 0% control (500 nM 4-{(E)-3-[4-(4-tert-butylphenyl)-5,5,8,8-tetramethyl-5,6,7,8-tetrahydro-2-naphthyl]-3-oxopropenyl}benzoic acid) are added at a rate of 5 μl per well. The plates are then incubated for 18 hours at 37° C. and 7% CO2.
(§9) The culture medium is removed by turning over and 100 μl of a 1:1 PBS/luciferine mixture is added to each well. After 5 minutes, the plates are read using the luminescence detector.

The target of the next assay is T2, RAR gamma (Homo sapiens, UniProt P13631).
T2 sequence (P13631 185-419 limits assumed): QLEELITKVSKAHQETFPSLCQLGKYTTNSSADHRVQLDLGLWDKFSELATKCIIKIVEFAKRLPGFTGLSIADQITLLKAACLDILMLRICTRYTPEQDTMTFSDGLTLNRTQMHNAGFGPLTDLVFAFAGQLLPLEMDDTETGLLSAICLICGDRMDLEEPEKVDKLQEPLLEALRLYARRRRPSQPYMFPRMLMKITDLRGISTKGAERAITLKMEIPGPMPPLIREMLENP
As to the kind of experiment: Transactivation test, HeLa reporter cells (luciferase), RAR gamma. As to the method: as §1, §2, §3, §4, §5, §6, §7, §8, §9

In another assay the target is T3, RAR alpha (Homo sapiens, UniProt P10276).
T3 sequence (P10276 183-417 limits assumed): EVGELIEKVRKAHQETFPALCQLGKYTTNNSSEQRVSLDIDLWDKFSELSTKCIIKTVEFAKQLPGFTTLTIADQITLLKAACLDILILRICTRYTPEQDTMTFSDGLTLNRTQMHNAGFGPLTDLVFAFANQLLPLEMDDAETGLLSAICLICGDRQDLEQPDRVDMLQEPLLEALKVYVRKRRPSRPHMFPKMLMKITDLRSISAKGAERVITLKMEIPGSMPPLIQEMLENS
As to the kind of experiment: Transactivation test, HeLa reporter cells (luciferase), RAR alpha. As to the method:
as §1, §2, §3, §4, §5, §6, §7, §8, §9

SMILES strings stand for the structures.

In the case of `COCCOc1cc(C(O)C#Cc2ccc(C(=O)O)cc2)cc2c1C(C)(C)CCC2(C)C` (stereo not drawn) [Ex 1, 4-{3-Hydroxy-3-[4-(2-methoxyethoxy)-5,5,8,8-tetramethyl-5,6,7,8-tetrahydronaphth-2-yl]prop-1-ynyl}benzoic acid], the Kd was 60 nM at RAR beta, 2 nM on RAR gamma and 60 nM at RAR alpha. The AC50 at RAR beta turned out to be 45 nM; at RAR gamma, 2 nM; at RAR alpha, 400 nM.

Turning to `CCOCCOc1cc(C(O)C#Cc2ccc(C(=O)O)cc2)cc2c1C(C)(C)CCC2(C)C` (stereo not drawn) [Ex 2, 4-{3-Hydroxy-3-[4-(2-ethoxyethoxy)-5,5,8,8-tetramethyl-5,6,7,8-tetrahydronaphth-2-yl]-prop-1-ynyl}benzoic acid], the AC50 came out at 500 nM at RAR beta, 50 nM on RAR gamma and 900 nM on RAR alpha. Further, the Kd at RAR gamma was determined as 30 nM; at RAR alpha, 1000 nM.

Consider `CCOCCOc1cc(C(O)C#Cc2ccc(C(=O)O)c(O)c2)cc2c1C(C)(C)CCC2(C)C` (stereo not drawn) [Ex 3, 4-{3-Hydroxy-3-[4-(2-ethoxyethoxy)-5,5,8,8-tetramethyl-5,6,7,8-tetrahydronaphth-2-yl]prop-1-ynyl}-2-hydroxybenzoic acid], for which the Kd at RAR beta was 120 nM; on RAR gamma, 1 nM; on RAR alpha it was 30 nM. In addition, the AC50 is 100 nM at RAR beta, 1 nM at RAR gamma and 150 nM on RAR alpha.

With `CCOCCOc1cc([C@H](O)C#Cc2ccc(C(=O)O)cc2)cc2c1C(C)(C)CCC2(C)C` [Ex 4, 4-{3-Hydroxy-3-[4-(2-ethoxyethoxy)-5,5,8,8-tetramethyl-5,6,7,8-tetrahydronaphth-2-yl]-prop-1-ynyl}benzoic (S)-acid], the figures for the half-maximal activity concentration (AC50) at RAR beta, at RAR gamma and at RAR alpha were 200 nM, 1.2 nM and 800 nM, respectively. Moreover, the Kd on RAR gamma worked out at 1 nM; at RAR alpha, 120 nM.

In the case of `CCOCCOc1cc([C@@H](O)C#Cc2ccc(C(=O)O)cc2)cc2c1C(C)(C)CCC2(C)C` [Ex 5, 4-{3-Hydroxy-3-[4-(2-ethoxyethoxy)-5,5,8,8-tetramethyl-5,6,7,8-tetrahydronaphth-2-yl]prop-1-ynyl}benzoic (R)-acid], the concentration at half-maximal activity (AC50) on RAR beta turned out to be 200 nM; at RAR gamma, 1.8 nM; on RAR alpha, 800 nM. In addition, the Kd at RAR gamma was determined as 1 nM; on RAR alpha, 120 nM.
